According to ChEMBL document CHEMBL1240361 (2010):

Tests used:
Type in all cases: functional
Staphylococcus aureus [1] = test: (§1) Antibacterial activity against methicillin-resistant Staphylococcus aureus infected in New Zealand white rabbit osteomyelitis model assessed as change in bacterial load in joint fluid per gram of tissue administered via constant iv infusion in presence of unloaded calcium-deficient apatites on day 3 post infection measured on day 7 by HPLC analysis
Staphylococcus aureus [2] = test: (§2) Antibacterial activity against methicillin-resistant Staphylococcus aureus infected in New Zealand white rabbit osteomyelitis model assessed as change in bacterial load in bone marrow per gram of tissue administered via constant iv infusion on day 3 post infection measured on day 7 by HPLC analysis
Staphylococcus aureus [3] = test: as §1, with “tissue at 25 ug/mg” for “tissue”, “via calcium-deficient apatite followed by” for “via”, “infusion” for “infusion in presence of unloaded calcium-deficient apatites”
Staphylococcus aureus [4] = test: as §1, with “tissue at 100 ug/mg” for “tissue”, “via calcium-deficient apatite followed by” for “via”, “infusion” for “infusion in presence of unloaded calcium-deficient apatites”
Staphylococcus aureus [5] = test: as §2, with “bone” for “bone marrow”, “tissue at 100 ug/mg” for “tissue”, “calcium-deficient apatite” for “constant iv infusion”
Staphylococcus aureus [6] = test: as §2, with “tissue at 500 ug/mg” for “tissue”, “via calcium-deficient apatite followed by” for “via”
Staphylococcus aureus [7] = test: as §1, with “tissue at 500 ug/mg” for “tissue”, “via calcium-deficient apatite followed by” for “via”, “infusion” for “infusion in presence of unloaded calcium-deficient apatites”
Staphylococcus aureus [8] = test: as §2, with “bone” for “bone marrow”, “tissue at 25 ug/mg” for “tissue”, “calcium-deficient apatite” for “constant iv infusion”
Staphylococcus aureus [9] = test: as §2, with “tissue at 25 ug/mg” for “tissue”, “calcium-deficient apatite” for “constant iv infusion”
Staphylococcus aureus [10] = test: as §2, with “tissue at 100 ug/mg” for “tissue”, “calcium-deficient apatite” for “constant iv infusion”
Staphylococcus aureus [11] = test: as §1, with “tissue at 25 ug/mg” for “tissue”, “via” for “via constant iv infusion in presence of unloaded”, “apatite” for “apatites”
Staphylococcus aureus [12] = test: as §2, with “tissue at 25 ug/mg” for “tissue”, “via calcium-deficient apatite followed by” for “via”
Staphylococcus aureus [13] = test: (§3) Antibacterial activity against methicillin-resistant Staphylococcus aureus infected in New Zealand white rabbit osteomyelitis model assessed as change in bacterial load in joint fluid per gram of tissue administered via constant iv infusion on day 3 post infection measured on day 7 by HPLC analysis
Staphylococcus aureus [14] = test: as §1, with “bone marrow” for “joint fluid”
Staphylococcus aureus [15] = test: as §3, with “tissue at 500 ug/mg” for “tissue”, “calcium-deficient apatite” for “constant iv infusion”
Staphylococcus aureus [16] = test: as §2, with “bone” for “bone marrow”, “tissue at 25 ug/mg” for “tissue”, “via calcium-deficient apatite followed by” for “via”
Staphylococcus aureus [17] = test: as §2, with “bone” for “bone marrow”, “tissue at 500 ug/mg” for “tissue”, “calcium-deficient apatite” for “constant iv infusion”
Staphylococcus aureus [18] = test: (§4) Antibacterial activity against methicillin-resistant Staphylococcus aureus infected in New Zealand white rabbit osteomyelitis model assessed as change in bacterial load in bone per gram of tissue administered via constant iv infusion on day 3 post infection measured on day 7 by HPLC analysis
Staphylococcus aureus [19] = test: as §4, with “tissue at 100 ug/mg” for “tissue”, “via calcium-deficient apatite followed by” for “via”
Staphylococcus aureus [20] = test: as §2, with “tissue at 100 ug/mg” for “tissue”, “via calcium-deficient apatite followed by” for “via”
Staphylococcus aureus [21] = test: as §2, with “tissue at 500 ug/mg” for “tissue”, “calcium-deficient apatite” for “constant iv infusion”
Staphylococcus aureus [22] = test: as §1, with “bone” for “joint fluid”
Staphylococcus aureus [23] = test: as §3, with “tissue at 100 ug/mg” for “tissue”, “calcium-deficient apatite” for “constant iv infusion”

For `CN[C@H](CC(C)C)C(=O)N[C@H]1C(=O)N[C@@H](CC(N)=O)C(=O)N[C@H]2C(=O)N[C@H]3C(=O)N[C@H](C(=O)N[C@H](C(=O)O)c4cc(O)cc(O)c4-c4cc3ccc4O)[C@H](O)c3ccc(c(Cl)c3)Oc3cc2cc(c3O[C@@H]2O[C@H](CO)[C@@H](O)[C@H](O)[C@H]2O[C@H]2C[C@](C)(N)[C@H](O)[C@H](C)O2)Oc2ccc(cc2Cl)[C@H]1O` [VANCOMYCIN], the log10cfu (Staphylococcus aureus [1]) was 0.3, the log10cfu (Staphylococcus aureus [2]) was 0.73 and the log10cfu (Staphylococcus aureus [3]) was 0.68. The log10cfu (Staphylococcus aureus [4]) was 0.9, the log10cfu (Staphylococcus aureus [5]) was 2.35 and the log10cfu (Staphylococcus aureus [6]) was 4.21. For the same compound, the log10cfu (Staphylococcus aureus [7]) was 1.69, the log10cfu (Staphylococcus aureus [8]) was 1.97 and the log10cfu (Staphylococcus aureus [9]) was 1.89. It also gave a log10cfu (Staphylococcus aureus [10]) of 3.41, a log10cfu (Staphylococcus aureus [11]) of 0.56 and a log10cfu (Staphylococcus aureus [12]) of -3.14. It also gave a log10cfu (Staphylococcus aureus [13]) of 0.03, a log10cfu (Staphylococcus aureus [14]) of 0.75 and a log10cfu (Staphylococcus aureus [15]) of 0.29. The log10cfu (Staphylococcus aureus [16]) was -2.4, the log10cfu (Staphylococcus aureus [17]) was 3.57 and the log10cfu (Staphylococcus aureus [18]) was 0.61. For the same compound, the log10cfu (Staphylococcus aureus [19]) was -4.63, the log10cfu (Staphylococcus aureus [20]) was -4.03 and the log10cfu (Staphylococcus aureus [21]) was 4.08. For the same compound, the log10cfu (Staphylococcus aureus [22]) was 0.35 and the log10cfu (Staphylococcus aureus [23]) was 0.05.
